Assay results published in patent publication US10030058B2, “Modulating gamma-C-cytokine activity” (Bioniz, LLC, priority 2015, dated 2018).
Peptide text beside a SMILES is read from it.

System: T-cells in HAM/TSP patient PBMC culture
Assay: Ex vivo spontaneous T-cell proliferation assay using HAM/TSP peripheral blood
Assay type: cell-based, human
Conditions: FIG. 4D
Procedure: Proliferation assays were performed on HAM/TSP patient blood samples with and without the addition of BNZ-γ. These assays evaluated the ability of BNZ-γ to block the function of cytokines, such as IL-2 and IL-15, present in the ex vivo HAM/TSP patient blood culture and prevent spontaneous T-cell proliferation in these samples.
In an ex vivo spontaneous T-cell proliferation assay, PBMC from HAM/TSP patient was cultured at 1×10(6) cells per well of a 96 well plate in RPMI-10% FCS. Increasing concentrations of BNZ-γ peptide were added to each well. As a control, an irrelevant peptide was used in similar fashion. The cells were incubated in a 37° C. CO2 incubator for 3, 4, and 6 days. The amount of 1 uCi of ^3H-thymidine was added to the cells. After an additional 6 hour incubation, cells were harvested their proliferation rate was measured. As indicated in FIG. 4A-FIG. 4D, BNZ-γ peptide inhibits the spontaneous proliferation of T-cells in HAM/TSP culture at a concentration of about 1 ug/ml.
Other immunological markers were additionally measured in this assay. The percentage of the viral specific CD8 cells was measured during the ex vivo culture using viral protein tetramers. The population of CD4+CD25+ cells, a marker of T-cell activation, as well as Ki67 staining, a marker of T-cell proliferation, was monitored in a flow cytometry assay.

Which “percent of live cells by Guava staining” value does the source give for `CC[C@H](C)[C@H](N)C(=O)N[C@@H](CCCCN)C(=O)N[C@@H](CCC(=O)O)C(=O)N[C@@H](Cc1ccccc1)C(=O)N[C@@H](CC(C)C)C(=O)N[C@@H](CCC(N)=O)C(=O)N[C@@H](CCCNC(=N)N)C(=O)N[C@@H](Cc1ccccc1)C(=O)N[C@H](C(=O)N[C@@H](Cc1c[nH]cn1)C(=O)N[C@H](C(=O)N[C@H](C(=O)N[C@@H](CCC(N)=O)C(=O)N[C@@H](CO)C(=O)N[C@H](C(=O)N[C@H](C(=O)N[C@@H](CC(N)=O)C(=O)N[C@H](C(=O)N[C@@H](CO)C(=O)O)[C@@H](C)O)[C@@H](C)CC)[C@@H](C)CC)C(C)C)[C@@H](C)CC)[C@@H](C)CC` [BNZ-γ, I-K-E-F-L-Q-R-F-I-H-I-V-Q-S-I-I-N-T-S] (H-IKEFLQRFIHIVQSIINTS-OH) here?
The value was “not impacted”.
